{"source": "patent EP1283052A1", "about": "“Pharmaceutical composition containing caspase-8 and /or caspase-9 useful for overcoming glucocorticoid- and cancer therapy-induced apoptosis of tumours” (Deutsches Krebsforschungszentrum Stiftung des öffentlichen …, priority 2001, dated 2003)", "key": {"[1]": {"tested_on": "P693 lung carcinoma xenografts", "experiment": "P693 lung carcinoma xenografts in nude mice, tumour volume", "assay_type": "in vivo", "conditions": "cisplatin 5mg/kg/week intraperitoneally for five weeks, absence of DEX; Fig. 1a", "procedure": "(§1) • (a) Human epidermoid lung cancer cells (P693) were injected into nude mice. At a tumour volume of 500 mm^3 weekly treatment with cisplatin (5mg/kg/week) was started. Cisplatin was injected intraperitoneally in the absence (CIS) or presence (DEX/CIS) of DEX which was added to the drinking water (0.28 mg/L) for the duration of the experiment. […] As controls, tumor growth of xenografts from mice which received neither cisplatin nor DEX (CO) or from mice which received DEX only (DEX) was determined. The tumour volume in each animal was measured at weekly intervals for a period of 5 weeks. Data are presented as the means +/- SD of 6 to 8 animals. • (b) The human cervical carcinoma cell lines HeLa and P5 were γ-irradiated (10 Gy) or treated with cisplatin (2 µg/ml) in the absence (white bars) or presence (black bars) of DEX (1 µM). The percentage of apoptosis was measured in untreated (CO) and stimulated cells by annexin-staining and FACS-analysis at the time points indicated. (c) P5, P693 and human leukemic T cells (CEM) cells were treated with cisplatin (2 µg/ml) in the absence or presence of DEX as indicated. 24 and 48 h following treatment cells were lysed and caspase-3 activity was determined by a fluorescent caspase-3 assay and spectroscopy."}, "caspase-3": {"tested_on": "caspase-3", "experiment": "Fluorometric caspase-3 activity assay in carcinoma cells", "assay_type": "cell-based, human", "conditions": "P5 and P693 cells, cisplatin 2 µg/ml alone; Fig. 1c", "procedure": "as §1"}, "caspase-8": {"tested_on": "caspase-8", "experiment": "Fluorometric caspase-8 activity assay in P693 cells", "assay_type": "cell-based, human", "conditions": "cisplatin 2 µg/ml alone, Fig. 2b", "procedure": "• (a) Left: P5 an CEM cells were treated with cisplatin (1-5 µg/ml) in the absence or presence of DEX (1 µM) as indicated. Proteins were extracted and expression of CD95-L, TRAIL or TNF-α was detected by Western blot analysis. The size of the proteins in kDa is indicated. Right: HeLa and P5 were treated with CD95 agonistic antibody αAPO-1 (CD95, 1 µg/ml), recombinant TRAIL protein (TRAIL, 100 ng/ml) or recombinant TNF-α protein (TNF-α, 100 ng/ml) in the absence (white bars) or presence (black bars) of DEX (1 µM). 24 h later the percentage of apoptosis was determined by annexin-staining and FACS-analysis in untreated (CO) and stimulated cells at the time points indicated. • (b) P693 and CEM cells were treated with cisplatin (2 µg/ml) in the absence or presence of DEX as indicated. 24 and 48 h following treatment cells were lysed and caspase-8 activity was determined by a fluorescent caspase-8 assay and spectroscopy. • (c) P5 cells were stable transfected with empty vector (pcDNA3), or pcDNA3 vector encoding dominant negative FADD protein (FADD-DN). Proteins were extracted from both cell lines and expression of wildtype (WT) and FADD-DN (DN) was detected by Western blot. Left: Stable transfected P5 cells were treated with αAPO-1 (1 µg/ml) and 24 h later apoptosis was determined by staining with annexin/propidium iodide and flow-cytometry. […]"}}, "data": [{"compound": "N.N.[Cl][Pt][Cl]", "note": "[cisplatin]", "values": [{"measurement": "tumour growth", "setting": "[1]", "result": "profound reduction of tumour growth"}, {"measurement": "caspase-3 activity", "setting": "caspase-3", "result": "induced 48 h following cisplatin"}, {"measurement": "activity of caspase-8", "setting": "caspase-8", "result": "induced 48 h following treatment"}]}]}
